Literature values, collected in patent US5840712A, “Water soluble vitamin B12 receptor modulating agents and methods related thereto” (Receptagen Corporation, priority 1995, dated 1998).

Biological target: avidin (Gallus gallus, UniProt P02701)
Sequence (P02701 25-152): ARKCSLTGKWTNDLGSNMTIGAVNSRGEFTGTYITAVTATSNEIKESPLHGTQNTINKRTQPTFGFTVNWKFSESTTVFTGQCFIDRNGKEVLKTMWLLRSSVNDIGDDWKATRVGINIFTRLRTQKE

O=C(O)CCCC[C@@H]1SC[C@@H]2NC(=O)N[C@@H]21 [biotin]
specific binding affinity of biotin for avidin (Ka): 10^15
